Experiment [1] concerns Sprague-Dawley rats. Briefly: Hemorrhagic shock-induced vascular hyperpermeability: FITC-albumin flux in mesenteric postcapillary venules by intravital microscopy. It is filed as in vivo, rat.
Excerpt: For example, in an embodiment of the invention disclosed herein, Sprague-Dawley rats were anesthetized with urethane. Hemorrhagic shock was induced in the anesthetized rats by withdrawing blood to reduce the mean arterial pressure to 40 mm Hg for one hour. The rats were then resuscitated to 90 mmHg by administration of the shed blood and normal saline. Albumin labeled with fluorescein isothiocyanate (FITC) was given intravenously during the period in which shock was present. The mesenteric postcapillary venules in a transilluminated segment of small intestine were examined to quantitate changes in albumin flux using intravital microscopy.
The test system of experiment [2] is endothelial cells. To be noted: traumatized animals, hemorrhagic shock; Childs et al. 2008; cited from earlier work.

On to `O=C(O)CCCCC1CCSS1` (stereo not drawn) [Alpha-lipoic acid, alpha-lipoic acid], for which the “vascular hyperpermeability induced by hemorrhagic shock-induced apoptosis” value in experiment [1] (alpha-lipoic acid administered to traumatized animals) is “attenuated the amount of vascular hyperpermeability”. Besides, the vascular hyperpermeability result is given as “effective in reducing the amount of vascular hyperpermeability” in experiment [1] (alpha-lipoic acid, about 100 mg/kg, before the onset of hemorrhagic shock) and “effective in reducing the amount of vascular hyperpermeability” in experiment [1] (alpha-lipoic acid, about 100 mg/kg, within 60 minutes after the development of hemorrhagic shock).

B1: Angiopoietin-1: an endothelial cell growth factor (protein, UniProt Q15389 16-498, looked up)
Angiopoietin-1: HIGCSNQRRSPENSGRRYNRIQHGQCAYTFILPEHDGNCRESTTDQYNTNALQRDAPHVEPDFSSQKLQHLEHVMENYTQWLQKLENYIVENMKSEMAQIQQNAVQNHTATMLEIGTSLLSQTAEQTRKLTDVETQVLNQTSRLEIQLLENSLSTYKLEKQLLQQTNEILKIHEKNSLLEHKILEMEGKHKEELDTLKEEKENLQGLVTRQTYIIQELEKQLNRATTNNSVLQKQQLELMDTVHNLVNLCTKEGVLLKGGKREEEKPFRDCADVYQAGFNKSGIYTIYINNMPEPKKVFCNMDVNGGGWTVIQHREDGSLDFQRGWKEYKMGFGNPSGEYWLGNEFIFAITSQRQYMLRIELMDWEGNRAYSQYDRFHIGNEKQNYRLYLKGHTGTAGKQSSLILHGADFSTKDADNDNCMCKCALMLTGGWWFDACGPSNLNGMFYTAGQNHGKLNGIKWHYFKGPSYSLRSTTMMIRPLDF
Turning to B1, in experiment [1] (angiopoietin-1 intravenously, 200 ng/ml, traumatized animals), the vascular hyperpermeability entry is on record as “attenuated the amount of vascular hyperpermeability”. Also, the “vascular hyperpermeability and apoptosis” value in experiment [2] was “potent inhibitor of vascular hyperpermeability and apoptosis”.

Values taken from patent US20100189802A1, “Method for treatment of vascular hyperpermeability” (Scott and White Memorial Hospital and Scott, Sherwood, and …, priority 2007, published 2010).
